Data as given in paper PMC8113459, “Selective inhibition of cullin 3 neddylation through covalent targeting DCN1 protects mice from acetaminophen-induced liver toxicity” (Nature Communications, 2021).
“And” between values parts separate entries of the source, which are not always exact repeats. Equal values may be shown once.

Columns and labels:
neddylation of cullin 3 = assay: Western blot, cullin 3 neddylation in cells of different tissue types (U2OS, THLE2, MDA-MB-231, KYSE70, HCT116); type: cell-based, human
Method: (§1) Western blotting was performed as described previously. Treated cells were lysed by RIPA buffer supplemented with protease inhibitor. The expression level of indicated proteins was examined by immunoblotting analysis and GAPDH was used as the loading control. Antibodies were purchased commercially: cullin 1 (sc-17775, 1:500 dilution) and cullin 2 (sc-166506, 1:500 dilution) from Santa Cruz Biotech (Santa Cruz, CA); cullin 4A (PA5-14542, 1:1000 dilution), cullin 4B (PA5-50647, 1:1000 dilution), and DCN3 (DCUN1D3, PA5-44000, 1:1000 dilution) from Thermo Fisher Scientific (Wayne, MI); cullin 3 (2759, 1:1000), NRF2 (12721, 1:1000 dilution), HO-1 (70081, 1:1000 dilution), and Bim (2819, 1:1000 dilution) from Cell Signaling Technology (Boston, MA); DCN1 (GWB-E3D700, 1:1000 dilution) from GenWay Biotech (San Diego, CA); and cullin 5 (A302-173A, 1:500 dilution) from Bethyl Labs (Montgomery, TX). Results are representative of two independent experiments.

DCN1 = DCN1 (Homo sapiens, UniProt Q96GG9); assay: Intact-protein mass spectrometric analysis of covalent complex formation, Method A; type: binding; details: for Percentage of the formation of covalent complex with DCN1 protein: 37 °C
DCN1, sequence (Q96GG9 58-259 limits assumed): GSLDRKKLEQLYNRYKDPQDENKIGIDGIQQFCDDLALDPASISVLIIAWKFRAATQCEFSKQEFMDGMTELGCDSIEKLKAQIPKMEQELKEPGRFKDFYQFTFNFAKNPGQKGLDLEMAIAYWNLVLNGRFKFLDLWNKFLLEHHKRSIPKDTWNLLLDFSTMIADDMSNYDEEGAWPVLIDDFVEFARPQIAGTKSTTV
Description: MassHunter Qualitative Analysis software (Agilent) was used to analyze the data. Intact protein masses were obtained using the maximum entropy deconvolution algorithm. The mass spectrometry data in Supplementary Figs. 1–11 were generated by Method A.

[1] = test system: neddylation of cullin 1, 2, 4A, 4B, and 5; assay: Western blot, neddylation of other cullin members; type: cell-based, human; details: for selectivity in inhibition of the neddylation of cullin 3 over other cullin members: a number of cell lines
Method: as §1

DCN3 protein = DCN3 protein (Homo sapiens, UniProt Q8IWE4); assay: Intact-protein mass spectrometric analysis, Method B (DCN3); type: binding; details: 3 h incubation
DCN3 protein, sequence (Q8IWE4 86-304 limits assumed): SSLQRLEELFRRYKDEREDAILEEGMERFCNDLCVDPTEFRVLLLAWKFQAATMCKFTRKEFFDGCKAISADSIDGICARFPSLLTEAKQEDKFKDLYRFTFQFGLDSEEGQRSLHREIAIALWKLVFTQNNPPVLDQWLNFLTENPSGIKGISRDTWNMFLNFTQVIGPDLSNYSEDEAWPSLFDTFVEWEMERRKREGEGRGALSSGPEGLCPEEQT
Method: Method B: Recombinant DCN1 or DCN3 protein (100 nM in 25 mM Tris 7.5, 200 mM NaCl, 1 mM DTT buffer) was incubated with 1.2-fold excess of the DCN1 inhibitors at 37 °C for 10 min, 1 h, or 3 h. Following incubation, the protein was analyzed by LC–MS (Agilent Q-TOF 6545) under the following conditions: fragmentor voltage, 300 V; skimmer voltage, 75 V; nozzle voltage, 100 V; sheath gas temperature, 350 °C; and drying gas temperature, 325 °C. MassHunter Qualitative Analysis software (Agilent) was used to analyze the data. Intact protein masses were obtained using the maximum entropy deconvolution algorithm. The mass spectrometry data in Supplementary Figs. 14–17 were generated by Method B.

[2] = test system: NRF2 protein in mouse liver tissue; assay: Pharmacodynamics: NRF2 protein in mouse liver tissue (western blot); type: in vivo; details: single dose 25 mg/kg IP; for upregulation of NRF2 protein in the mouse liver: C57BL/6 male mice
Method: Fig. 7 DI-1859 effectively increases the level of NRF2 protein in the liver tissue and protects liver tissue damage induced by acetaminophen (APAP) in mice. a Western blotting analysis of the effect of DI-1548 or DI-1859 on the level of NRF2 protein in mouse liver tissue. Liver tissues harvested from C57BL/6 male mice treated with DI-1548 or DI-1859 at 25 mg/kg via intraperitoneal (IP) injection was lysed with RIAP buffer. The expression level of NRF2 protein was examined by western blotting. GAPDH was used a loading control. Representative images of two independent experiments are shown. b Analysis of the serum alanine aminotransferase (ALT) level in mice. The time (h) counted from APAP administration in G2 and G5-8, from DI-1859 or vehicle administration in G1, G3, and G4. Data are presented as mean ± s.d. with n = 9 (G1), 9 (G2), 8 (G3), 8 (G4), 9 G5), 9 (G6), 9 (G7), and 9 (G8). c Immunohistological analysis of mouse liver tissues. Images are representatives in each group. Images were taken with a 100× objective. Scale bar: 100 µm. d Analysis of the ROS level in mouse liver tissue. Data are presented as mean ± s.d. with n = 9 (G1), 8 (G2), 8 (G3), 8 (G4), 8 (G5), 6 (G6), 9 (G7), and 9 (G8). G1: Vehicle (qD for 3 days); G2: APAP (400 mg/kg, a single dose); G3: DI-1859 (25 mg/kg, qD for 3 days); G4: DI-1859 (50 mg/kg, qD for 3 days); G5: DI-1859 (25 mg/kg, qD for 3 days), a single dose of APAP at 400 mg/kg administered 3 h after the second dose of DI-1859 administration on day 2; G6: DI-1859 (50 mg/kg, qD for 3 days), a single dose of APAP at 400 mg/kg administered 3 h after the second dose of DI-1859 administration on day 2; G7: APAP (400 mg/kg, a single dose), followed with DI-859 at 25 mg/kg 3 h after APAP administration and two additional doses on day 2 and day 3; and G8: APAP (400 mg/kg, a single dose), followed with DI-859 at 50 mg/kg 3 h after APAP administration and two additional doses on day 2 and day 3. n = 8–9 mice per group. Source data are provided as a Source Data file.
Western blotting was performed as described previously. […]

[3] = test system: p21, BIM and CDT1 proteins; assay: Western blot, CRL1 and CRL4A substrates; type: cell-based, human
Method: as §1

KEAP1 and p62 proteins = assay: Western blot, KEAP1 and p62 in U2OS and THLE2 cells; type: cell-based, human; details: 6 h
Method: as §1
Supplementary Figure 22. Western blotting analysis of Keap1 and p62 in U2OS cells (a) and […]
The cells were treated with compounds as indicated for 6 h. Treated cells were harvested and lysed with RIPA buffer. The expression of P62 and Keap1 were examined by western blotting analysis. Antibody information:
Keap1 (cst, #8047), P62 (cst,#5114). GAPDH was used as a loading control. Representative images of two independent experiments are shown. […]

[4] = 10 min incubation, 1.2-fold excess inhibitor

| Structure (SMILES) | concentration achieving profound inhibition of the neddylation of cullin 3 (neddylation of cullin 3) [nM] | concentration as low as which the level of neddylated cullin 3 is significantly reduced (neddylation of cullin 3) [nM] | covalent complex formation / reaction kinetics with DCN1 protein (in words) (DCN1) | Percentage of the formation of covalent complex with DCN1 protein (DCN1; [4]) [%] | Percentage of the formation of covalent complex with DCN1 protein (DCN1; 60 min (1 h) incubation) [%] | Percentage of the formation of covalent complex with DCN1 protein (DCN1; 180 min (3 h) incubation) [%] | effect on the neddylation of cullin 1 ([1]; U2OS, treatment time up to 48 h) | selectivity in inhibition of the neddylation of cullin 3 over other cullin members [1] | effect on the neddylation of cullin 1, 2, 4A, 4B, and 5 ([1]; concentrations up to 1000 nM) | covalent complex formation with DCN3 (DCN3 protein) | upregulation of NRF2 protein in the mouse liver [2] | effect on the levels of p21, BIM and CDT1 proteins ([3]; concentrations up to 1000 nM) | effect on protein levels of KEAP1 and p62 (KEAP1 and p62 proteins) | inhibition of neddylation of cullin members ([1]; THLE2, Fig. 6b) | persistence of upregulation of NRF2 in mouse liver [2] [h] | effect on protein level of CDT1 ([3]; THLE2, Fig. 6b) |
| --- | --- | --- | --- | --- | --- | --- | --- | --- | --- | --- | --- | --- | --- | --- | --- | --- |
| C=C(CN1CCOCC1)C(=O)NC[C@@H](NC(=O)[C@H](Cc1nc2ccc(C(C)C)cc2s1)NC(=O)CC)C1CCCCC1 [DI-1548] | 1 to 3 | ≤ 0.3 | very fast covalent complex formation | 100 | 100 | 100 | no effect | > 1000 fold and 1000 fold | no obvious effect | fail to form any detectable complex | robust upregulation | no effect | no obvious effect | – | – | – |
| C=C(CN(C)C)C(=O)NC[C@@H](NC(=O)[C@H](Cc1nc2ccc(C(C)C)cc2s1)NC(=O)CC)C1CCCCC1 [DI-1859] | 1 to 3 | ≤ 0.3 | very fast covalent complex formation | 100 | 100 | 100 | – | 1000 fold | – | fail to form any detectable complex | robust upregulation | – | no obvious effect | similar, high selectivity | > 24 | no effect |
